According to patent publication US20200024278A1, “COMPOSITION COMPRISING ANTIBIOTIC COMPOUND AND AN HETEROCYCLIC COMPOUND AND THEIR USE IN PREVENTING OR TREATING BACTERIAL INFECTIONS” (MUTABILIS, priority 2016, published 2020):
Read-outs that look alike come from different tables or passages of the source.

Legend:
Test in all cases: MIC, broth microdilution (CLSI), substance alone or ATB combined with compound at 4 or 8 μg/mL
PAE 105250 = type: cell-based, P. aeruginosa; details: PAE 105250
Method in brief: (§1)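 Antibiotic MICs were determined in presence of fixed compound at 4 or 8 μg/mL, and compound MICs alone, by visual growth inhibition. Inoculum 5·10^5 CFU/mL in ca-MHB, incubated 35 °C for 16-20 h per CLSI-M7-A7. Glucose-6-phosphate (25 μg/ml) added when fosfomycin was tested.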

PAE UFR90 = type: cell-based, P. aeruginosa; details: PAE UFR90
Method in brief: as §1

SPN 49619 = type: cell-based, S. pneumoniae; details: SPN 49619
Method in brief: as §1

KPN BAA-1898 = type: cell-based, K. pneumoniae; details: KPN BAA-1898; for MIC: Klebsiella pneumoniae, BAA1898
Method in brief: as §1

KPN UFR42 = type: cell-based, K. pneumoniae; details: KPN UFR42
Method in brief: as §1

KPN 6299 = type: cell-based, K. pneumoniae; details: for MIC: Klebsiella pneumoniae
Method in brief: as §1

[1] = Pseudomonas aeruginosa, antibiotic alone, read-out: MIC ATB alone
[2] = antibiotic alone, read-out: MIC ATB alone

SMILES: CC1(C)S[C@@H]2[C@H](NC(=O)[C@H](N)c3ccc(O)cc3)C(=O)N2[C@H]1C(=O)O [AMX, Amoxicillin, reference compound]
- MIC ATB combined with Example 12 @8 μg/ml (PAE 105250; with Example 12 at 8 μg/ml): >32 µg/mL
- MIC ATB combined with Example 13 @8 μg/ml (PAE 105250; with Example 13 at 8 μg/ml): >32 µg/mL
- MIC ATB combined with Example 14 @8 μg/ml (PAE 105250; with Example 14 at 8 μg/ml): >32 µg/mL
- MIC ATB combined with Example 15 @4 μgml (PAE 105250; with Example 15 at 4 μg/ml): >32 µg/mL
- MIC ATB combined with Example 16 @4 μg/ml (PAE 105250; with Example 16 at 4 μg/ml): >32 µg/mL
- MIC (PAE 105250; [1]): > 1020 µg/mL
- MIC ATB combined with Example 1 @8 μg/ml (PAE UFR90; with Example 1 @8 μg/ml): <0.031 µg/mL
- MIC ATB combined with Example 1 @8 μg/ml (PAE UFR90; with Example 1 at 8 μg/ml): <0.031 µg/mL
- MIC ATB combined with Example 7 @8 μgml (PAE UFR90; with Example 7 at 8 μg/ml): >32 µg/mL
- MIC ATB combined with Example 9 @4 μg/ml (PAE UFR90; with Example 9 @4 μg/ml): >32 µg/mL
- MIC ATB combined with Example 9 @4 μg/ml (PAE UFR90; with Example 9 at 4 μg/ml): >32 µg/mL
- MIC ATB combined with Example 11 @8 μg/ml (PAE UFR90; with Example 11 at 8 μg/ml): >32 µg/mL
- MIC ATB combined with Example 12 @8 μg/ml (PAE UFR90; with Example 12 at 8 μg/ml): >32 µg/mL
- MIC ATB combined with Example 13 @8 μg/ml (PAE UFR90; with Example 13 at 8 μg/ml): >32 µg/mL
- MIC ATB combined with Example 14 @8 μg/ml (PAE UFR90; with Example 14 at 8 μg/ml): >32 µg/mL
- MIC ATB combined with Example 15 @4 μgml (PAE UFR90; with Example 15 at 4 μg/ml): >32 µg/mL
- MIC ATB combined with Example 16 @4 μg/ml (PAE UFR90; with Example 16 at 4 μg/ml): >32 µg/mL
- MIC (PAE UFR90; [1]): > 32 µg/mL
- MIC ATB combined with Example 7 @8 μgml (SPN 49619; with Example 7 at 8 μg/ml): <=0.031 μg/mL
- MIC ATB combined with Example 9 @4 μg/ml (SPN 49619; with Example 9 @4 μg/ml): <0.031 µg/mL
- MIC ATB combined with Example 9 @4 μg/ml (SPN 49619; with Example 9 at 4 μg/ml): <0.031 µg/mL
- MIC ATB combined with Example 11 @8 μg/ml (SPN 49619; with Example 11 at 8 μg/ml): <0.031 µg/mL
- MIC ATB combined with Example 12 @8 μg/ml (SPN 49619; with Example 12 at 8 μg/ml): <0.031 µg/mL
- MIC ATB combined with Example 13 @8 μg/ml (SPN 49619; with Example 13 at 8 μg/ml): <=0.031 μg/mL
- MIC ATB combined with Example 14 @8 μg/ml (SPN 49619; with Example 14 at 8 μg/ml): <0.031 µg/mL
- MIC ATB combined with Example 15 @4 μgml (SPN 49619; with Example 15 at 4 μg/ml): <0.031 µg/mL
- MIC ATB combined with Example 16 @4 μg/ml (SPN 49619; with Example 16 at 4 μg/ml): <0.031 µg/mL
- MIC ATB combined with Example 1 @8 μg/ml (KPN BAA-1898; with Example 1 @8 μg/ml): >32 µg/mL
- MIC ATB combined with Example 1 @8 μg/ml (KPN BAA-1898; with Example 1 at 8 μg/ml): >32 µg/mL
- MIC ATB combined with Example 7 @8 μgml (KPN BAA-1898; with Example 7 at 8 μg/ml): >32 µg/mL
- MIC ATB combined with Example 9 @4 μg/ml (KPN BAA-1898; with Example 9 @4 μg/ml): <0.031 µg/mL
- MIC ATB combined with Example 9 @4 μg/ml (KPN BAA-1898; with Example 9 at 4 μg/ml): <0.031 µg/mL
- MIC ATB combined with Example 11 @8 μg/ml (KPN BAA-1898; with Example 11 at 8 μg/ml): <0.031 µg/mL
- MIC ATB combined with Example 12 @8 μg/ml (KPN BAA-1898; with Example 12 at 8 μg/ml): <0.031 µg/mL
- MIC ATB combined with Example 13 @8 μg/ml (KPN BAA-1898; with Example 13 at 8 μg/ml): >32 µg/mL
- MIC ATB combined with Example 14 @8 μg/ml (KPN BAA-1898; with Example 14 at 8 μg/ml): <0.031 µg/mL
- MIC ATB combined with Example 15 @4 μgml (KPN BAA-1898; with Example 15 at 4 μg/ml): <0.031 µg/mL
- MIC ATB combined with Example 16 @4 μg/ml (KPN BAA-1898; with Example 16 at 4 μg/ml): <0.031 µg/mL
- MIC (KPN BAA-1898; [2]): > 1020 µg/mL
- MIC (KPN BAA-1898; substance alone, read-out: MIC): > 1020 µg/mL
- MIC ATB combined with Example 1 @8 μg/ml (KPN UFR42; with Example 1 @8 μg/ml): >32 µg/mL
- MIC ATB combined with Example 1 @8 μg/ml (KPN UFR42; with Example 1 at 8 μg/ml): >32 µg/mL
- MIC ATB combined with Example 7 @8 μgml (KPN UFR42; with Example 7 at 8 μg/ml): >32 µg/mL
- MIC ATB combined with Example 9 @4 μg/ml (KPN UFR42; with Example 9 @4 μg/ml): >32 µg/mL
- MIC ATB combined with Example 9 @4 μg/ml (KPN UFR42; with Example 9 at 4 μg/ml): >32 µg/mL
- MIC ATB combined with Example 11 @8 μg/ml (KPN UFR42; with Example 11 at 8 μg/ml): <0.031 µg/mL
- MIC ATB combined with Example 12 @8 μg/ml (KPN UFR42; with Example 12 at 8 μg/ml): <0.031 µg/mL
- MIC ATB combined with Example 13 @8 μg/ml (KPN UFR42; with Example 13 at 8 μg/ml): >32 µg/mL
- MIC ATB combined with Example 14 @8 μg/ml (KPN UFR42; with Example 14 at 8 μg/ml): <0.031 µg/mL
- MIC ATB combined with Example 15 @4 μgml (KPN UFR42; with Example 15 at 4 μg/ml): <0.031 µg/mL
- MIC ATB combined with Example 16 @4 μg/ml (KPN UFR42; with Example 16 at 4 μg/ml): <0.031 µg/mL
- MIC (KPN UFR42; Klebsiella pneumoniae, antibiotic alone, read-out: MIC ATB alone): > 256 µg/mL
- MIC (KPN 6299; [2]): > 1020 µg/mL
- MIC (KPN 6299; substance alone, read-out: MIC): > 1020 µg/mL
- MIC ATB combined with Example 1 @8 μg/ml (KPN 6299; with Example 1 @8 μg/ml): >32 µg/mL
- MIC ATB combined with Example 1 @8 μg/ml (KPN 6299; with Example 1 at 8 μg/ml): >32 µg/mL
- MIC ATB combined with Example 7 @8 μgml (KPN 6299; with Example 7 at 8 μg/ml): 0.5 µg/mL
- MIC ATB combined with Example 9 @4 μg/ml (KPN 6299; with Example 9 @4 μg/ml): <=0.5 μg/mL
- MIC ATB combined with Example 9 @4 μg/ml (KPN 6299; with Example 9 at 4 μg/ml): <0.031 µg/mL
- MIC ATB combined with Example 11 @8 μg/ml (KPN 6299; with Example 11 at 8 μg/ml): <0.031 µg/mL
- MIC ATB combined with Example 12 @8 μg/ml (KPN 6299; with Example 12 at 8 μg/ml): <0.031 µg/mL
- MIC ATB combined with Example 13 @8 μg/ml (KPN 6299; with Example 13 at 8 μg/ml): 2 µg/mL
- MIC ATB combined with Example 14 @8 μg/ml (KPN 6299; with Example 14 at 8 μg/ml): <0.031 µg/mL
- MIC ATB combined with Example 15 @4 μgml (KPN 6299; with Example 15 at 4 μg/ml): <0.031 µg/mL
- MIC ATB combined with Example 16 @4 μg/ml (KPN 6299; with Example 16 at 4 μg/ml): <0.031 µg/mL
